Columns and labels:
[1] = test system: lysine 382 of p53 in U2OS osteosarcoma cells; test: p53 Ac-K382 Western blot after UV radiation; assay type: cell-based, human
S. cerevisiae = test: Yeast replicative lifespan by micro-manipulation; conditions: for Average lifespan, growth on resveratrol: wild type untreated 21.0
Human recombinant SIRT2 = molecular target: T1, Human recombinant SIRT2 (Homo sapiens, UniProt Q8IXJ6); test: SIRT2 deacetylation assay (Fluor de Lys-SIRT2); assay type: biochemical; conditions: 25 μM Fluor de Lys-SIRT2, 25 μM NAD+, 20 minutes, 37° C.
T1 sequence (Q8IXJ6 1-389): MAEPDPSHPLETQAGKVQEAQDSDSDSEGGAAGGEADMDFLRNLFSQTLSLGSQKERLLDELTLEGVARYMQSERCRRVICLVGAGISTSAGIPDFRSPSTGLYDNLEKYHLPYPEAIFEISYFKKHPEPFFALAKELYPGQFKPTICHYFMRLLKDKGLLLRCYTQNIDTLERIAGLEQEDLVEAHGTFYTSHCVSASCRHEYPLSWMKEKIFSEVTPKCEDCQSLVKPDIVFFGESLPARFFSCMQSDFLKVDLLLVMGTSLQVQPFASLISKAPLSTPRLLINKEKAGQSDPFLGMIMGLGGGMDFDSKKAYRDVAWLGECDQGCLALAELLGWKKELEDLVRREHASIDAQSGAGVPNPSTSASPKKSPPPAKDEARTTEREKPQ
Excerpt: Yeast Sir2 and human SIRT1 are very homologous and differ from human SIRT2 by the addition of an N-terminal domain that is absent in SIRT2. […] Thus, based on the difference in structure of SIRT1 and SIRT2, i.e., the absence of an N-terminal domain (see FIG. 8), it is believed that the N-terminal domain of SIRT1 and Sir2 is necessary for activation by the compounds described herein. In particular, it is likely that the activator compounds described herein interact with the N-terminal portion of sirtuins. The N-terminal portion of SIRT1 that is necessary for the action of the compounds is from about amino acid 1 to about amino acid 176, and that of Sir2 is from about amino acid 1 to about amino acid 175.

recombinant human SIRT1 = molecular target: T2, recombinant human SIRT1 (Homo sapiens, UniProt Q96EB6); test: SIRT1 fluorescent deacetylation assay (p53-382 acetylated peptide substrate); assay type: biochemical; conditions: 100 μM resveratrol
T2 sequence (Q96EB6 1-747): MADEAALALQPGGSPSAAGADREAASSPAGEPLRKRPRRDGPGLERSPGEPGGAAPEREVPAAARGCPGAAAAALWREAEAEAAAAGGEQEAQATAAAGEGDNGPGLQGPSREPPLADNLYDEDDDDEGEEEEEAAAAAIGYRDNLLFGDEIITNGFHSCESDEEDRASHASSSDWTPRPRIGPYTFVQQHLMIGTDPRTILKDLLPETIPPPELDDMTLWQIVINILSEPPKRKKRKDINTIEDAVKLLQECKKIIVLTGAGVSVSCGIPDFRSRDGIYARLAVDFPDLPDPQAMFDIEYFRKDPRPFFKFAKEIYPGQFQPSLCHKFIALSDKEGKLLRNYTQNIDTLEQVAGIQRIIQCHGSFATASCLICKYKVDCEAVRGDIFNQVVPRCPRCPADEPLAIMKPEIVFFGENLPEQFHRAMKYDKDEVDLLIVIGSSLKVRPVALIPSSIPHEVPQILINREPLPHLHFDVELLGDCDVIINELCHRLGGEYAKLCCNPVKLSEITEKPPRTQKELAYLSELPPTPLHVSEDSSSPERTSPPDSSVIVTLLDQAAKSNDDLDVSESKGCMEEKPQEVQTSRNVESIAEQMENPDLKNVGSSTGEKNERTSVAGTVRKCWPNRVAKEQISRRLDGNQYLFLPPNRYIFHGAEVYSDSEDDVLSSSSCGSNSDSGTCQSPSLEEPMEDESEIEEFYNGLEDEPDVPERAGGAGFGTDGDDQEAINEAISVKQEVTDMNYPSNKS
Excerpt: To identify compounds that modulate SIRT1 activity, we screened a number of small molecule libraries using a fluorescent deacetylation assay in 96-well plates^26. The substrate used in the assay was a fluorogenic peptide based on the sequence encompassing the p53-K382 acetylation site, a known target of SIRT1 in vivo^20,21,27. This substrate was preferred over a variety of other fluorogenic peptide substrates that were based on other known HDAC targets (FIG. 5). The small molecule libraries included analogues of nicotinamide, ε-acetyl lysine, NAD^+, nucleotides, nucleotide analogues and purinergic ligands. From the initial screen, several sirtuin inhibitors were found (Supplementary Table 7). However, the most striking outcome was the identification of two compounds, quercetin and piceatannol, that stimulated SIRT1 activity five and eight-fold, respectively (Table 1). Both quercetin and piceatannol have been previously identified as protein kinase inhibitors^28,29.
His6-tagged recombinant SIRT1 and GST-tagged recombinant Sir2 were prepared as previously described^26. From 0.1 to 1 μg of SIRT1 and 1.5 μg of Sir2 were used per deacetylation assay (in 50 μl total reaction) as previously described^26. SIRT1 assays and certain of those for Sir2 employed the p53-382 acetylated substrate (‘Fluor de Lys-SIRT1’, BIOMOL) rather than FdL.
Themed compound libraries (BIOMOL) were used for primary and secondary screening. […] For water soluble compounds and negative controls, 1% v/v DMSO was added to the assay. […] HeLa cells were grown and the cellular deacetylation assays were performed and read, as above, but in full-volume 96-well microplates (Corning Costar 3595). Unless otherwise indicated all initial rate measurements were means of three or more replicates, obtained with single incubation times, at which point 5% or less of the substrate initially present had been deacetylated. Calculation of net fluorescence increases included subtraction of a blank value, which in the case of Sir2 was obtained by omitting the enzyme from the reaction and in the case of SIRT1 by adding an inhibitor (200 μM suramin or 1 mM nicotinamide) to the reaction prior to the acetylated substrate. […] All error bars represent the standard error of the mean.
All SIRT1 rate measurements used in the calculation of “Ratio to Control Rate” were obtained with 25 μM NAD^+ and 25 μM p53-382 acetylated peptide substrate were performed as described above and in K. T. Howitz et al. Nature (2003) 425: 191. All ratio data were calculated from experiments in which the total deacetylation in the control reaction was 0.25-1.25 μM peptide or 1-5% of the initial concentration of acetylated peptide.

[2] = D. melanogaster body mass; assay type: in vivo; conditions: 10 μM, 15% SY diet
Description: Feeding rate was measured in yw females with the crop-filling assay^27. […] The presence of dye-marked food in the crop was scored in sets of 20 females across five 5-minute intervals. […] Males and females were weighed daily.

Structure (SMILES): Oc1ccc(/C=C/c2cc(O)cc(O)c2)cc1 [Resveratrol, 3,5,4′-Trihydroxy-trans-stilbene]
- level of Ac-K382 compared to untreated cells ([1]; 0.5 μM resveratrol, 4 hours pre-treatment, UV radiation): marked decrease
- level of Ac-K382 at higher concentrations ([1]; >50 μM resveratrol): the effect was reversed
- Average lifespan (S. cerevisiae; 10 μM, complete 2% glucose medium, wild type untreated 22.9): 36.8 generations
- Average lifespan, growth on resveratrol (S. cerevisiae; 10 μM): 35.7 generations
- Average lifespan, growth on resveratrol (S. cerevisiae; 100 μM): 29.4 generations
- Average lifespan, growth on resveratrol (S. cerevisiae; 500 μM): 29.3 generations
- Average lifespan, glucose-restricted+resveratrol (CR+R) (S. cerevisiae; glucose restriction): 39.9 generations
- Average lifespan, pnc1Δ+resveratrol (S. cerevisiae; pnc1Δ untreated 19.2): 33.1 generations
- Average lifespan, sir2Δ+resveratrol (S. cerevisiae; sir2Δ untreated 9.9): 10.0 generations
- Average lifespan, wild type+resveratrol (wt+R) (S. cerevisiae; wild type untreated 19.0): 37.8 generations
- effect of increasing concentrations on SIRT2 activity (Human recombinant SIRT2): decrease
- Vmax (+resveratrol), NAD+ varied (recombinant human SIRT1; 1 mM p53-382 acetylated peptide, control 1863): 1749 AFU/min.
- Vmax (+resveratrol), p53-382 acetylated peptide varied (recombinant human SIRT1; 3 mM NAD+, control 1107): 926 AFU/min.
- body weight [2]: normal weight
